Results taken from PMC9227781, “Inhibitors of O-Acetylserine Sulfhydrylase with a Cyclopropane-Carboxylic Acid Scaffold Are Effective Colistin Adjuvants in Gram Negative Bacteria” (Pharmaceuticals, 2022).

Key:
K. pneumoniae ATCC13883 = test: Checkerboard assay with colistin, K. pneumoniae; type: cell-based, Klebsiella pneumoniae; settings: for reduction of the MIC of colistin, K. pneumoniae: association of colistin with compound; for MIC Colistin K. pneumoniae: colistin in combination with compound at 8 μg/mL
Procedure: (§1) Antimicrobial activity of associations between the different compounds and colistin (Sigma-Aldrich, St. Louis, MO, USA, lot n. 049M-4836 V) was tested with checkerboard assay with minor modifications, as mentioned in the previous work. For each assay, three experiments with three replicates each were assessed. For each compound tested concentration, 96-wells microtiter U-plates were prepared with twofold serial dilutions of colistin in MHB starting from the MIC value (µg/mL) for ten consecutive dilutions in 50 µL of broth. In each well of the same replicate, 1 µL of each compound in DMSO was added at a fixed concentration, 100 times higher than the final desired concentration (3.2; 1.6; 0.8 mg/mL). Subsequently, 49 µL of the bacterial suspension at a concentration of 10^6 CFU/mL, adjusted spectrophotometrically as reported above, was added to each well, reaching the final bacterial concentration of 5 × 10^5 CFU/mL. Growth and sterility controls were performed for each experiment and for each replicate. Finally, the plates were incubated at 37 °C in aerobic atmosphere for 24 h. After incubation, plates were read by unaided eye with a microtiter reading mirror and then the OD of each well of the plates was measured spectrophotometrically at 620 nm. MIC values were calculated as the arithmetic mean ± SD of the unaided eye reading and the inhibition of growth for each tested dilution was calculated from the OD values (mean ± SD).
(§2) To evaluate the antimicrobial effect of the two molecules in association, the FIC index was calculated as follows. The MICs of each of the two molecules tested individually and in combination with each other were evaluated and the results have been included in the following formula as reported by Meletiadis et al.: FIC=MICA in combination/MICA+MICB in combination/MICB where MICA was the MIC of the compound UPAR415 and MICA in combination was the MIC of UPAR415 in combination with colistin. MICB was the MIC of colistin and MICB in combination was the MIC of colistin in combination with UPAR415. From the results of the FIC index formula, the antimicrobial activity in combination of the two molecules can be considered: synergistic, additive, indifferent of antagonistic. If the FIC index is ≤ 0.5, the association is synergic; additive if FIC is between 0.5 and 1; indifferent if FIC is between 1 and 4; and antagonistic if FIC is ≥4 [50].
(§3) Statistical analysis of checkerboard results in comparison with MIC values of colistin alone was performed using the Analysis of Variance (ANOVA) test.

MDBK cells = test: Cytotoxicity assay (MTT) on MDBK cells; type: cell-based, bovine; settings: 32, 16, 8 µg/mL; MTT test
Procedure: The cytotoxicity assay was performed using the 3-(4,5-dimethylthiazol-2-yl)-2,5-diphenyltetrazolium bromide (MTT) test, following the procedure used by Donofrio et al.. MDBK cells were cultured on microtiter tissue culture plates in DMEM medium for 24 h at 37 °C in the presence of 5% CO2. After incubation, when the cell monolayer was at confluence, an aliquot of 1 µL of UPAR415 in DMSO at different concentrations was added in each well, containing a volume of 100 µL of DMEM medium and MDBK cells, and then the plates were reincubated at the same conditions. After incubation, 10 µL of MTT at 200 mg/mL (3-(4,5-dimethylthiazol-2-yl)-2,5-diphenyltetrazolium bromide) was added to each well and incubated at 37 °C for 6 h. At the end of the incubation, 100 µL of the solubilization solution (10% SDS in 0.01 M HCl) was added to each well and then incubated overnight. The MTT compound, a yellow tetrazolium salt, is reduced by mitochondrial enzymes (succinate dehydrogenase) of metabolically active eukaryotic cells to insoluble formazan crystals. In the presence of metabolically active cells, after the addition of a detergent solution (10% SDS in […]) that allows the formazan to be released from the cells, a violet color is seen in the medium. Instead, in the presence of non-viable cells, MTT is not reduced to formazan and therefore the solution will remain yellow.
After incubation, plates were read with a spectrophotometer at 620 nm. Positive controls (PC)—without any compounds—and PCs with 1% DMSO were performed for each plate and three replicates for two independent experiments were performed for each assay.

StOASS-A = molecular target: T1, StOASS-A (Salmonella typhimurium, UniProt P0A1E3); test: Fluorescence binding assay on purified recombinant StOASS-A; parameters: species or system S. Typhimurium; settings: 20 °C, 100 mM HEPES, 5% DMSO, pH 7.0, racemic mixture, esters tested up to 100 μM
T1 construct: His-tag (with TEV site) (cleaved yes); made in house; host or cells: E. coli Rosetta (DE3)
Procedure: The affinity of the compounds for StOASS-A and StOASS-B was determined on the purified recombinant proteins by an in vitro fluorescence binding assay. Measurements were carried out at 20 °C in a 3 mm pathlength quartz microcuvette in 100 mM HEPES, 5% DMSO (Applichem, Darmstadt, Germany), pH 7.0, using a Fluoromax-4 (Horiba Jobin-Yvon, Kyoto, Japan) spectrofluorometer. Emission spectra of solutions containing 0.2–1.0 μM StOASS, upon excitation of the pyridoxal 5′-phosphate cofactor at 412 nm, in the presence of increasing concentrations of compounds were collected; fluorescence intensities at 500 nm were plotted to compound concentration and data were fitted to a binding isotherm: I=I0+ΔI·compound/KD+compound where I is the fluorescence emission intensity at 500 nm in the presence of a given concentration of compound, I0 is the initial fluorescence emission in the absence of ligands, ΔI is the amplitude of the fluorescence emission change and KD is the dissociation constant. When the KD was lower than the protein concentration, data were fitted to the quadratic equation: I=I0+ΔI·OASS+compound+KD−OASS+compound+KD^2−4·OASS·compound/2
Data were collected in duplicate.
Esters were tested up to a concentration of 100 μM and no binding was observed.

S. Typhimurium ATCC14028 = test: Checkerboard assay with colistin, S. Typhimurium; type: cell-based, Salmonella enterica serovar Typhimurium; settings: for MIC: Salmonella enterica, colistin in combination with compound at 8 μg/mL; for fold reduction with respect to the MIC of colistin alone, S. Typhimurium: compound at 8 µg/mL
Procedure: as §1, §2, §3

[1] = compound at 8 μg/mL with colistin

T1 sequence (P0A1E3 whole entry): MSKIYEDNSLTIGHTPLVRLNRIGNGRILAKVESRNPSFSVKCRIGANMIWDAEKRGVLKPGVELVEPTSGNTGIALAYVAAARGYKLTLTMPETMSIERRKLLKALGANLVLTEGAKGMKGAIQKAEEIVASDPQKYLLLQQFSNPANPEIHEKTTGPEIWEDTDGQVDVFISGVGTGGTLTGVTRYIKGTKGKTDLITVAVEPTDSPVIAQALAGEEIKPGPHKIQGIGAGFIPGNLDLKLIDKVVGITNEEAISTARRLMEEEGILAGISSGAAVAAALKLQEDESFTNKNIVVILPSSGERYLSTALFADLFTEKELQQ

SMILES | reduction of the MIC of colistin, K. pneumoniae (K. pneumoniae ATCC13883) | MIC Colistin K. pneumoniae (K. pneumoniae ATCC13883) [µg/mL] | FIC Index K. pneumoniae (K. pneumoniae ATCC13883; [1]) | FIC Index interpretation K. pneumoniae (K. pneumoniae ATCC13883; [1]) | Toxicity on viability of MDBK cells (MDBK cells) | KD (μM) OASS-A (StOASS-A) | MIC (S. Typhimurium ATCC14028) [µg/mL] | MIC Colistin (S. Typhimurium ATCC14028; colistin in combination with 12h at 32 μg/mL, S. Typhimurium ATCC14028 (wild type)) [µg/mL] | fold reduction with respect to the MIC of colistin alone, S. Typhimurium (S. Typhimurium ATCC14028) [fold] | FIC Index S. Typhimurium (S. Typhimurium ATCC14028; [1]) | FIC Index interpretation S. Typhimurium (S. Typhimurium ATCC14028; [1]) | effect on MIC of colistin, K. pneumoniae (K. pneumoniae ATCC13883; compound at 32 and 16 µg/mL) | Kd (StOASS-A; read-out: KD (μM) OASS-A) [µM]
CCOC(=O)C1(Cc2ccc(C)cc2)CC1c1cccc(N2CC(C)OC(C)C2)c1 (stereo not drawn) [Compound 12h, trans-ethyl 2-(3-(2,6-dimethylmorpholino)phenyl)-1-(4-methylbenzyl)cyclopropanecarboxylate] | has not led to a reduction of the MIC of colistin | 8.00 ± 0.0 | 2.01 | indifference (indifferent if FIC is between 1 and 4) | lowest toxicity profile | No binding | 0.101 ± 0.07 | 0.125 ± 0.08 | 5 | 0.21 | synergy (If the FIC index is ≤ 0.5, the association is synergic) | – | –
Cc1ccc(CC2(C(=O)O)CC2c2cccc(N3CC(C)OC(C)C3)c2)cc1 (stereo not drawn) [Compound 13h, trans-2-(3-(2,6-dimethylmorpholino)phenyl)-1-(4-methylbenzyl)cyclopropanecarboxylic acid] | has not led to a reduction of the MIC of colistin | 3.33 ± 1.0 | 0.85 | – | lowest toxicity profile | most potent in vitro activity among the derivatives substituted with heteroaliphatic groups | 0.468 ± 0.01 | – | 2 | 0.90 | – | only a slight effect | 0.066 ± 0.005
